Like-named read-outs stand apart in the source and are kept apart here.
Biological target: HPPK (Escherichia coli, UniProt P26281)
Experiment: HPPK binding study by fluorometric titration (Kd)
Conditions: for affinity compared with previously known HPPK inhibitors: comparison in words
Protocol: Binding studies were carried out at room temperature. Protein (HPPK) and ligand stock solutions were made in 100 mM Tris-HCl, pH 8.3, and their concentrations were determined spectrophotometrically using the following extinction coefficients: 21600 M^−1 cm^−1 at 280 nm for HPPK and 7124 M^−1 cm^−1 at 380 nm for the tetrahydropteridine bisubstrate inhibitors of Formula I. A 3-mL dilute inhibitor solution in a fluorometric cuvette was titrated with the protein stock solution. Fluorescence was measured on a Horiba Jobin Yvon FluoroMax-4 fluorometer. The excitation wavelength and slit were 364-380 and 2-3 nm, respectively, and the emission wavelength and slit were 450-482 and 2-5 nm, respectively. […] For these HPPK preparations, a control experiment, in which a 3-mL buffer solution was titrated with the protein solution, was performed. The control data was subtracted from the titration data. The corrected titration data was then analyzed by nonlinear least-squares regression using the software Origin and the equation: […]
where Fobs is the observed fluorescence, εf and εb are the fluorescence coefficients of the ligand in the free and protein-bound states, respectively, Lt is the total concentration of the ligand, and Et is the total concentration of HPPK. Lt and Et were varied during the titration process according to the following expressions:
where E0 is the concentration of the HPPK stock solution, L0 is the initial concentration of the ligand, V0 is the initial volume of the titration, and ΔV is the total volume of the added HPPK solution.

[1] = room temperature, 100 mM Tris-HCl pH 8.3, inhibitor titrated with HPPK, fluorescence, nonlinear least-squares analysis, read-out: Kd

Sequence of HPPK (P26281 whole entry): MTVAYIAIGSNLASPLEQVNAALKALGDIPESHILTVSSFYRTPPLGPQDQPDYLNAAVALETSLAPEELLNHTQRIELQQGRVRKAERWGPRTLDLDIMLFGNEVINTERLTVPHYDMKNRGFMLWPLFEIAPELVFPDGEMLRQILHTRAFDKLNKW

Compound | Kd | affinity compared with previously known HPPK inhibitors | Kd [1]
CC1(C)Nc2nc(N)[nH]c(=O)c2N=C1C(=O)NCC(=O)N(CC(=O)NC[C@H]1O[C@@H](n2cnc3c(N)ncnc32)C(O)C1O)CP(=O)(O)O (stereo partly shown) [Compound 114] | 1.8 µM | significantly higher | 
CC1(C)Nc2nc(N)[nH]c(=O)c2N=C1C(=O)NCCN(CC(=O)NC[C@H]1O[C@@H](n2cnc3c(N)ncnc32)C(O)C1O)CP(=O)(O)O (stereo partly shown) [Compound 115] | 2.9 µM |  | 
CC1(C)Nc2nc(N)[nH]c(=O)c2N=C1C(=O)NC1CCN(CCSC[C@H]2O[C@@H](n3cnc4c(N)ncnc43)[C@H](O)[C@@H]2O)CC1 [Compound 101, 2-amino-N-(1-(2-((((2S,3S,4R,5R)-5-(6-amino-9H-purin-9-yl)-3,4-dihydroxytetrahydrofuran-2-yl)methyl)thio)ethyl)piperidin-4-yl)-7,7-dimethyl-4-oxo-3,4,7,8-tetrahydropteridine-6-carboxamide] |  |  | 11.5 µM
CC1(C)Nc2nc(N)[nH]c(=O)c2N=C1C(=O)NCCN(CCSC[C@H]1O[C@@H](n2cnc3c(N)ncnc32)[C@H](O)[C@@H]1O)CP(=O)(O)O [Compound 118, (((2-(2-amino-7,7-dimethyl-4-oxo-3,4,7,8-tetrahydropteridine-6-carboxamido)ethyl)(2-((((2S,3S,4R,5R)-5-(6-amino-9H-purin-9-yl)-3,4-dihydroxytetrahydrofuran-2-yl)methyl)thio)ethyl)amino)methyl)phosphonic acid] | 0.4 µM | significantly higher | 
CC1(C)Nc2nc(N)[nH]c(=O)c2N=C1C(=O)NCCN1CC[C@@H](SC[C@H]2O[C@@H](n3cnc4c(N)ncnc43)[C@H](O)[C@@H]2O)C[C@@H]1C(=O)O [Compound 120, (2R,4R)-1-(2-(2-amino-7,7-dimethyl-4-oxo-3,4,7,8-tetrahydropteridine-6-carboxamido)ethyl)-4-((((2S,3S,4R,5R)-5-(6-amino-9H-purin-9-yl)-3,4-dihydroxytetrahydrofuran-2-yl)methyl)thio)piperidine-2-carboxylic acid] |  |  | 0.3 µM

Source: patent US11091509B2, “HPPK inhibitors useful as antibacterial agents” (priority 2016, dated 2021)
